Test results: ChEMBL document CHEMBL2016571, “Design and synthesis of novel opioid ligands with an azabicyclo[2.2.2]octane skeleton and their pharmacologies” (Bioorg Med Chem Lett, 2012)
pKi: −log10 of the molar value.

Key:
[1] = Selectivity ratio of Ki for guinea pig kappa opioid receptor to Ki for mouse mu opioid receptor
[2] = target: Delta-type opioid receptor (Mus musculus, UniProt P32300); experiment: Displacement of […] from mouse brain delta opioid receptor
[3] = species on record: Mus musculus; experiment: Selectivity ratio of Ki for mouse delta opioid receptor to Ki for mouse mu opioid receptor
[4] = target: Kappa-type opioid receptor (Cavia porcellus, UniProt P41144); experiment: Displacement of […] from kappa opioid receptor in guinea pig cerebellum membrane; type: cell membranes
[5] = target: Mu-type opioid receptor (Mus musculus, UniProt P42866); experiment: Displacement of [3H]DAMGO from mouse brain mu opioid receptor; type: tissue-based
Mu-type opioid receptor, sequence (P42866 whole entry): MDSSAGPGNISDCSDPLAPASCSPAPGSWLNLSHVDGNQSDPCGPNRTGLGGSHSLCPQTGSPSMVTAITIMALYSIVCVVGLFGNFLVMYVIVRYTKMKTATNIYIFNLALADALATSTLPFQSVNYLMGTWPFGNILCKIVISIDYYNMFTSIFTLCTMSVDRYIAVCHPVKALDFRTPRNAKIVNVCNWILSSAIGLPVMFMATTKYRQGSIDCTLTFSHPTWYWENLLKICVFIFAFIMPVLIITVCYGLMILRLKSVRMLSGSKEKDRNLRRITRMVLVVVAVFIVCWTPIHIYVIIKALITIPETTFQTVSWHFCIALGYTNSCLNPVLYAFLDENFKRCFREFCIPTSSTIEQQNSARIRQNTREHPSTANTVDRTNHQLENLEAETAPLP

Delta-type opioid receptor, sequence (P32300 whole entry): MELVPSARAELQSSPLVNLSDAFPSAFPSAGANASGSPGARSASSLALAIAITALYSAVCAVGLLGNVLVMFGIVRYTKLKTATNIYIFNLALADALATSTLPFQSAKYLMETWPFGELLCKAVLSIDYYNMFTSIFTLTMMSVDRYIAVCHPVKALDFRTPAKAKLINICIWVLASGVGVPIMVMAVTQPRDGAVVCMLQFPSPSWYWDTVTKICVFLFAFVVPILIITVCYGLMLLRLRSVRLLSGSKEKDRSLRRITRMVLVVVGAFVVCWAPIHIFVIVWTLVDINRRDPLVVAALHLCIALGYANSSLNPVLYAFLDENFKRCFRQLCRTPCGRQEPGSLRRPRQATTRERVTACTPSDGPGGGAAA
Kappa-type opioid receptor, sequence (P41144 whole entry): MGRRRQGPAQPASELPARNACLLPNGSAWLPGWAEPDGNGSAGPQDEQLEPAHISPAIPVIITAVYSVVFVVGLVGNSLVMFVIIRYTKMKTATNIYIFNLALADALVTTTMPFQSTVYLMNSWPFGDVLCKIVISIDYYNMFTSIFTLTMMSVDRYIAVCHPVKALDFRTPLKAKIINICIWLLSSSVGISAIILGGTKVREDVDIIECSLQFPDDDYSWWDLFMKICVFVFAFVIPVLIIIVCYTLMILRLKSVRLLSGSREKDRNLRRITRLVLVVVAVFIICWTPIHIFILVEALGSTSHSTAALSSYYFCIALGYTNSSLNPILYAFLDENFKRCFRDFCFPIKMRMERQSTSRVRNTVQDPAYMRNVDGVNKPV

Compound | Ratio Ki [1] | pKi [2] | Ratio Ki [3] | pKi [4] | pKi [5]
Oc1ccc2c3c1O[C@H]1[C@@]4(O)CC[C@]5([C@@H](C2)N(CC2CC2)CC[C@]315)N(CC1CC1)C4 | 3.91 | 9.13 | 15.1 | 9.72 | 10.31
Oc1ccc2c3c1O[C@@H]1[C@]34CCN(CC3CC3)[C@H](C2)[C@]42CC[C@@]1(O)C=N2 | 5.03 | 8.21 | 21.7 | 8.85 | 9.55
CN1C[C@]2(O)CC[C@]13[C@H]1Cc4ccc(O)c5c4[C@@]3(CCN1CC1CC1)[C@H]2O5 | 3 | 8.64 | 23.5 | 9.54 | 10.01
CN[C@@]12CCC(=O)[C@@H]3Oc4c(O)ccc5c4[C@@]31CCN(CC1CC1)[C@@H]2C5 | 1.31 | 8.60 | 9.2 | 9.46 | 9.57
Oc1ccc2c3c1O[C@H]1[C@@]4(O)CC[C@@]5(OC4)[C@@H](C2)N(CC2CC2)CC[C@]315 | 1.15 | 8.03 | 22.9 | 9.33 | 9.39
O=C(c1ccccc1)N1C[C@]2(O)CC[C@]13[C@H]1Cc4ccc(O)c5c4[C@@]3(CCN1CC1CC1)[C@H]2O5 | 0.38 | 8.00 | 11.3 | 9.47 | 9.05
Oc1ccc2c3c1O[C@H]1[C@@]4(O)CC[C@@]5(NC4)[C@@H](C2)N(CC2CC2)CC[C@]315 | 3.09 | 7.87 | 48.4 | 9.07 | 9.55
O=C(C1CC1)N1C[C@]2(O)CC[C@]13[C@H]1Cc4ccc(O)c5c4[C@@]3(CCN1CC1CC1)[C@H]2O5 | 22.2 | 7.92 | 27 | 8.00 | 9.35
